This passage reports GI50 and TGI results from PubChem BioAssay (NCI).

Among the test systems are NCI/ADR-RES ovarian; U251 CNS; SNB-19 CNS; A549 NSCLC; HOP-62 NSCLC; NCI-H460 lung; UACC-62 melanoma; HCT-15 colon; MCF7 breast; UO-31 renal.
What all share (experiment): inhibition of tumour cell growth, NCI panel, 48 h

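Step 1: Grow cells in 96-well plates. Step 2: Expose to compound for 48 hours at 5 concentrations. Step 3: Interpolate endpoints linearly; if unreached, use highest concentration. Abbreviation: GI50, concentration required for 50% inhibition of growth. Definition used: TGI = concentration required for complete inhibition of growth.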 A value given as a limit tells only on which side of the number the result lay.

Regarding `O=[N+]([O-])c1ccc(Oc2nc(Nc3ccc(O[C@H]4CO[C@H]5[C@@H]4OC[C@@H]5O)c(Cl)c3)ncc2F)c(Cl)c1`, the GI50 was 9.04 µM in the assay on NCI/ADR-RES ovarian; 1.66 µM in the assay with U251 CNS; 2.89 µM with SNB-19 CNS; 1.86 µM with A549 NSCLC; 1.63 µM in the assay with HOP-62 NSCLC; 0.853 µM in the assay with NCI-H460 lung. In addition, the GI50 with UACC-62 melanoma is 0.843 µM; in the assay with HCT-15 colon it was 2.37 µM; in the assay with MCF7 breast, 1.66 µM; with UO-31 renal, 1.6 µM. Besides, the TGI in the assay on NCI/ADR-RES ovarian is > 100 µM; with U251 CNS it was 6.51 µM; in the assay on SNB-19 CNS it was 9.81 µM; in the assay with A549 NSCLC, 6.15 µM; in the assay on HOP-62 NSCLC, 4.65 µM; in the assay with NCI-H460 lung it was 2.98 µM. In addition, the TGI came to 2.27 µM in the assay with UACC-62 melanoma, 10.7 µM in the assay on HCT-15 colon, 4.16 µM in the assay with MCF7 breast and 4.81 µM in the assay on UO-31 renal.
For `Oc1ccc(-c2nc3ccc4[nH]ncc4c3c3c2CCCC3)c(F)c1`, the GI50 with NCI/ADR-RES ovarian is 3.91 µM; in the assay with U251 CNS it was 1.45 µM; in the assay with SNB-19 CNS, 3.59 µM; in the assay with A549 NSCLC it was 1.17 µM; in the assay with HOP-62 NSCLC, 1.5 µM; with NCI-H460 lung, 2.18 µM. Further, the GI50 is 1.67 µM in the assay on UACC-62 melanoma, 2.26 µM in the assay on HCT-15 colon, 4.91 µM in the assay on MCF7 breast and 2.6 µM in the assay with UO-31 renal. Moreover, the TGI was found to be 53.3 µM in the assay on NCI/ADR-RES ovarian; 6.36 µM in the assay with U251 CNS; 14.2 µM in the assay with SNB-19 CNS; 6.11 µM in the assay with A549 NSCLC; 5.47 µM in the assay on HOP-62 NSCLC; 11.1 µM in the assay on NCI-H460 lung. Further, the TGI in the assay with UACC-62 melanoma is 4.37 µM; in the assay with HCT-15 colon, 11.3 µM; with MCF7 breast, 20.7 µM; in the assay on UO-31 renal it was 8.35 µM.
Turning to `Cc1ccc(-c2c3c(nn2-c2ccc(S(N)(=O)=O)cc2)-c2ccccc2C3)cc1`, the GI50 in the assay on NCI/ADR-RES ovarian was 23.4 µM; in the assay on U251 CNS, 19 µM; in the assay on SNB-19 CNS, 37.4 µM; in the assay with A549 NSCLC, 23.4 µM; in the assay on HOP-62 NSCLC, 20.6 µM; in the assay on NCI-H460 lung it was 19.1 µM. The GI50 with UACC-62 melanoma was 11.3 µM; in the assay on HCT-15 colon, 20.2 µM; in the assay on MCF7 breast, 30.3 µM; in the assay with UO-31 renal it was 6.52 µM. For the same compound, the TGI in the assay with NCI/ADR-RES ovarian was 68.7 µM; with U251 CNS, 34.7 µM; in the assay with SNB-19 CNS, > 100 µM; with A549 NSCLC, 70.1 µM; in the assay with HOP-62 NSCLC, 36.1 µM; with NCI-H460 lung, 43.7 µM. Further, the TGI with UACC-62 melanoma is 24.1 µM; in the assay with HCT-15 colon it was 42.4 µM; with MCF7 breast, > 100 µM; in the assay with UO-31 renal, 21.8 µM.
With `COc1cccc(/C=N/NC(=S)NC2CC3CCC2C3)c1O` (stereo not given), the GI50 in the assay on NCI/ADR-RES ovarian was 3.16 µM; in the assay on U251 CNS, 7.57 µM; in the assay with SNB-19 CNS, 14.6 µM; in the assay on A549 NSCLC, 4 µM; in the assay with HOP-62 NSCLC it was 3.01 µM; in the assay on NCI-H460 lung, 2.47 µM. In addition, the GI50 in the assay on UACC-62 melanoma is 10.8 µM; in the assay with HCT-15 colon, 1.07 µM; in the assay with MCF7 breast, 4.74 µM; with UO-31 renal it was 2.3 µM. Besides, the TGI with NCI/ADR-RES ovarian stood at 15.1 µM; with U251 CNS, 26.7 µM; in the assay with SNB-19 CNS it was 35.9 µM; in the assay on A549 NSCLC, 15.9 µM; in the assay on HOP-62 NSCLC, 10 µM; in the assay on NCI-H460 lung, 8.43 µM. Further, the TGI is 50.1 µM in the assay on UACC-62 melanoma, > 100 µM with HCT-15 colon, 27.1 µM with MCF7 breast and 9.93 µM in the assay with UO-31 renal.
As for `FC(F)(F)c1ccc(-c2cnc(-n3cc(COCCN4CCCCC4)nn3)nc2NC2CCCCCC2)cc1`, the GI50 in the assay with NCI/ADR-RES ovarian is 3.85 µM; with U251 CNS, 3.5 µM; in the assay with SNB-19 CNS, 3.61 µM; with A549 NSCLC it was 4.16 µM; in the assay on HOP-62 NSCLC, 4.15 µM; in the assay with NCI-H460 lung, 4.57 µM. Also, the GI50 with UACC-62 melanoma is 3.88 µM; with HCT-15 colon it was 4.02 µM; in the assay on MCF7 breast it was 3.21 µM; in the assay with UO-31 renal, 2.63 µM. Moreover, the TGI in the assay with NCI/ADR-RES ovarian was found to be 7.66 µM; in the assay on U251 CNS it was 6.87 µM; in the assay with SNB-19 CNS, 7.11 µM; with A549 NSCLC it was 8.18 µM; in the assay with HOP-62 NSCLC, 8.64 µM; in the assay with NCI-H460 lung, 8.84 µM. For the same compound, the TGI in the assay with UACC-62 melanoma came to 7.6 µM; with HCT-15 colon it was 8.66 µM; in the assay on MCF7 breast it was 7.4 µM; with UO-31 renal, 5.97 µM.
As for `Cn1nc(-c2ccc(Cl)cc2)nc2c(=O)n(C)c(=O)nc1-2`, the GI50 in the assay on NCI/ADR-RES ovarian is 1.33 µM; in the assay with U251 CNS, 0.789 µM; in the assay with SNB-19 CNS it was 3.03 µM; with A549 NSCLC, 0.768 µM; with HOP-62 NSCLC it was 0.886 µM; in the assay with NCI-H460 lung, 1.21 µM. Further, the GI50 with UACC-62 melanoma is 0.745 µM; with HCT-15 colon, 0.766 µM; in the assay on MCF7 breast it was 0.594 µM; with UO-31 renal, 1.53 µM. In addition, the TGI amounted to 4.47 µM with NCI/ADR-RES ovarian; 2.62 µM with U251 CNS; 6.73 µM with SNB-19 CNS; 1.73 µM in the assay on A549 NSCLC; 1.75 µM in the assay on HOP-62 NSCLC; 4.94 µM in the assay on NCI-H460 lung. The TGI in the assay on UACC-62 melanoma came out at 1.68 µM; with HCT-15 colon, 1.53 µM; in the assay with MCF7 breast it was 1.57 µM; with UO-31 renal, 6.56 µM.
Turning to `CC(=O)c1c(CN(C)c2ccccc2)n([O-])c2ccccc2[n+]1=O`, the GI50 was 19.5 µM in the assay with NCI/ADR-RES ovarian; 29.7 µM in the assay with U251 CNS; 17.5 µM in the assay with SNB-19 CNS; 47.1 µM in the assay on A549 NSCLC; 30.7 µM in the assay on HOP-62 NSCLC; 33.6 µM in the assay with NCI-H460 lung. Further, the GI50 in the assay on UACC-62 melanoma is 23.9 µM; with HCT-15 colon, 31.3 µM; in the assay with MCF7 breast, 15 µM; in the assay on UO-31 renal, 32 µM. Besides, the TGI in the assay with NCI/ADR-RES ovarian was 55.9 µM; with U251 CNS, > 100 µM; in the assay with SNB-19 CNS it was 57.1 µM; with A549 NSCLC, > 100 µM; in the assay on HOP-62 NSCLC, > 100 µM; in the assay with NCI-H460 lung, > 100 µM. Moreover, the TGI in the assay on UACC-62 melanoma was 83.8 µM; in the assay with HCT-15 colon, > 100 µM; in the assay with MCF7 breast it was 63 µM; with UO-31 renal, > 100 µM.
